This note sets out measurements from publication PMC9572541, “Design, Synthesis and Biological Evaluation of Novel and Potent Protein Arginine Methyltransferases 5 Inhibitors for Cancer Therapy” (Molecules, 2022).

“Also recorded” adds a separate entry of the source.

One data set concerns AML-12 hepatocytes. Put plainly: Toxicity on normal AML-12 hepatocytes. The data set is classed as cell-based. From the text:
MV-4-11 and MDA-MB-468 cell lines were used to evaluate the anti-proliferative activities of the selected target compounds (CellTiter-Glo assay), and AML-12 hepatocytes were selected to evaluate the toxicity of the compounds.
MV-4-11 and MDA-MB-468 cell line were derived from Cell Resources Center of Shanghai Academy of life sciences (Shanghai, China). AML-12 cell line was brough from Nanjing Lixing Biotechnology Co. Ltd. (Nanjing, China). MDA-MB-468 cell line was maintained in Dulbecco’s Modified Eagle Medium (DMEM, KeyGEN Bio) that contained 10% FBS (Biochanel, China), MV-4-11 cell line was maintained in Iscove’s Modified Dulbecco Medium containing; 10% FBS (Biochannel, China), AML-12 cell line was maintained in DMEM/F-12 (1:1) (KeyGEN, China; 1% ITS Liquid Media Supplement (Sigma, America), dexamethasone 40 ng/mL (Sigma, USA) and 10% FBS (Biochannel, China). All cells were grown in a humidified incubator containing 5% carbon dioxide at 37 ℃. All compounds were dispersed in dimethyl sulfoxide (Sigma), the concentration of the reserve solution was 10 mmol/L and the solution was stored in a refrigerator at −20 ℃. SDMA (# 13222S), β- Tubulin (#2146S) and horseradish peroxidase (HRP)-linked secondary antibodies anti-rabbit or anti-mouse IgG were purchased from Cell Signaling Technology (CST), and the anti-PRMT5 (ab109451) antibody was purchased from ABCAM. […]

For a further data set, the target named is T1, PRMT5 (Homo sapiens, UniProt O14744).
T1 construct: The final concentrations of PRMT5 enzyme: 2.5 nm/L
T1 sequence (O14744 whole entry): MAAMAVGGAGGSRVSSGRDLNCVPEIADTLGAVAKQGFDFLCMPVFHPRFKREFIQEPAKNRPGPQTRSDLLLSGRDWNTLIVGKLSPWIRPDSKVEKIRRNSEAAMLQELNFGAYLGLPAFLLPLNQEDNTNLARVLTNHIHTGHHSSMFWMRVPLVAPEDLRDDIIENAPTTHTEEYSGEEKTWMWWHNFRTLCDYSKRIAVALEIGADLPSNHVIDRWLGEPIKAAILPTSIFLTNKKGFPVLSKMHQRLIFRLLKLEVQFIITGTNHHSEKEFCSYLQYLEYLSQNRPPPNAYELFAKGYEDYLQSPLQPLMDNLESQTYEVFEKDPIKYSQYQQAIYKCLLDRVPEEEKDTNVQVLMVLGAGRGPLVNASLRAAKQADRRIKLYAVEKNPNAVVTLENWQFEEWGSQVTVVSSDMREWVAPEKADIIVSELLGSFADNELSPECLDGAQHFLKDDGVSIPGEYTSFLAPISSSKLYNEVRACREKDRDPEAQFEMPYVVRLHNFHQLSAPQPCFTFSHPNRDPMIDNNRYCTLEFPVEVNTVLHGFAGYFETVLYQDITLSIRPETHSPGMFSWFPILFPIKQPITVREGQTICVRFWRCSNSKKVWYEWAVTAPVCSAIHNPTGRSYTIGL
T1 sequence (Q9BQA1 whole entry partner): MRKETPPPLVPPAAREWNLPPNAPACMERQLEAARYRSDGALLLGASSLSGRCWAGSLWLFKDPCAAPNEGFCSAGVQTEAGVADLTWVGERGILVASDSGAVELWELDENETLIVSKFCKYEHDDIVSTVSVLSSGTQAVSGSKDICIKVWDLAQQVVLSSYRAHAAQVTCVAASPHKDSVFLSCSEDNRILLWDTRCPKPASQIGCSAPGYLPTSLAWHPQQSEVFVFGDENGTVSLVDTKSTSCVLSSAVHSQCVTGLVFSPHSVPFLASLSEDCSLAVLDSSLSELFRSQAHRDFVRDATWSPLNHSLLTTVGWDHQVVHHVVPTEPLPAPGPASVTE
Description: Cellular thermal shift assay (CETSA) in MV-4-11 cells. The data set is classed as cell-based.

Data set [1] has as its system sDMA. Description: Western blot of PRMT5 substrate sDMA in MV-4-11 cells. The format is cell-based. The following applies: 96 h, five-fold concentration gradient. Here is the method: Compounds were administered at the expected concentration for the expected time in MV-4-11 cell lines. After being washed twice with PBS, cells were lysed with RIPA buffer, protease inhibitors (PMSF, MCE, New York, NY, USA), and phosphatase cocktails II (MCE, USA) for 1 h. The mixture was centrifuged at 12000 rpm for 15 min. The total protein content was quantified by BCA kit (Beyotime, Shanghai, China). Equivalent proteins were electrophoresed through 8~10% SDS-PAGE and then transferred on to polyvinylidene difluoride membranes (Millipore, Burlington, MA, USA). Subsequently, block the membrane for 1~2 h by 5% (w/v) skim milk (BD, Columbus, OH, USA). Proteins were detected using primary antibodies, followed by HRP-conjugated secondary antibodies, and visualization was performed using ECL (Vazyme Biotech, Beijing, China) as the HRP substrate. The target blots were detected with chemiluminescence system (Tanon, Shanghai, China). The densitometric analysis was performed with Image J software.
Western blot analysis of PRMT5 substrate sDMA, as indicated in MV-4-11 cancer cells treated with the indicated compounds for 96 h. β-Tubulin was used as a loading control. (B) The relative strength of sDMA signal on the Western blots was measured by densitometry. The data are shown as the mean ± SD of three independent experiments.
(Immunoblotting shows a protein as a band on a membrane.)

The test system of a further data set is MV-4-11 xenograft. Put plainly: MV-4-11 xenograft mouse model. The format is in vivo, BALB/c nude mice. The conditions noted are these: 28 days. How it is done:
Based on the excellent enzymatic and anti-proliferative activities of compound 20 in vitro, we then evaluated antitumor activities in vivo in an MV-4-11 xenograft mouse model.
Male BALB/c nude mice (6–8 weeks old) were purchased from Hangzhou Medical College. All animals were housed in a specific pathogen-free facility. MV-4-11 cells (5 × 10^6) suspended in 0.2 mL of PBS were inoculated subcutaneously on the right flank of each BALB/c nude mouse. Mice were divided randomly (5 mice for each group) into two treatment groups and a control group when the size of the tumors reached 150 mm^3. […] The tumor volume and body weight were measured every 2 days. The tumor volume was determined with Vernier calipers and calculated as follows: tumor volume = a × b^2/2, where a and b stand for the longest and shortest diameters measured by the vernier caliper, respectively. All animal experiments have been approved by Pharmaceutical Experiment Center of China Pharmaceutical University.
(A) The resulting tumors excised from the animals after treatment. […] (C) The nude mouse body weight was measured every 2 days. (D) The tumor volumes of the nude mice were measured and calculated once every 2 days.

The subject of data set [2] is sDMA. Description: Western blot of sDMA in MV-4-11 xenograft tumors. The format is in vivo, BALB/c nude mice. The conditions noted are these: 10 mg/kg, 28 days. Here is the method:
Subsequently, we investigated the effects of compound 20 on the expression of the PRMT5 substrate sDMA in vivo (Figure 8). Similarly, the expression of sDMA was decreased after the treatment of compound 20, which was in line with its antitumor activity in vivo.
Tumor tissue was grinded by a cryo-grinder before being lysed with an RIPA buffer, protease inhibitors (PMSF, MCE), and phosphatase cocktails II (MCE). The mixture was centrifuged for 15 min (12,000 rpm). The following steps were the same as with cells.
(A) Western blot analysis of sDMA as indicated in MV-4-11 xenograft tumors treated with the indicated compounds for 28 days. (B) The relative strength of sDMA signal on the Western blots was measured by densitometry. The data are shown as the mean ± SD of three independent experiments. * p < 0.05 vs. control.

The term inhibition denotes the drop in the measured response relative to a control, in per cent. As a reminder, the TGI is the reduction of tumour growth relative to the control group. In the case of `O=C(NC[C@H](O)CN1CCc2ccccc2C1)c1ccc2c(c1)c1c(n2CC2COC2)CCCC1` [Compound 20, (S)-N-(3-(3,4-dihydroisoquinolin-2(1H)-yl)-2-hydroxypropyl)-9-(oxetan-3-ylmethyl)-2,3,4,9-tetrahydro-1H-carbazole-6-carboxamide], the “toxicity to normal AML-12 hepatocytes (in words)” value in the data set with AML-12 hepatocytes is “almost no toxicity; also recorded: no significant cytotoxicity”. In the data set on AML-12 hepatocytes (Mus musculus, AML12, read-out: AML-12 Inhibition Rate% @10 μM), the inhibition at 10 µM is -30.5 ± 9.4%. Moreover, the inhibition at 20 µM with AML-12 hepatocytes (Mus musculus, AML12, read-out: AML-12 Inhibition Rate% @20 μM) was -27 ± 1.2%. Besides, the “PRMT5 melting point increase compared to DMSO vehicle” value on PRMT5 (1 μM, 18 h) is 7.2 °C. Besides, the “Inhibition of PRMT5 degradation at 58 °C” value on PRMT5 (isothermal dose response, 58 °C) is “dose-dependent manner”. Moreover, the sDMA protein expression result with sDMA [1] is “concentration-dependent decrease in sDMA”. Moreover, in the data set with MV-4-11 xenograft (10 mg/kg BID), the body weight entry was “no significant weight fluctuations” and the tolerability / mortality result is “well-tolerated with no mortality”. In the data set with MV-4-11 xenograft (10 mg/kg, twice daily (BID)), this compound showed an inhibition of tumour growth (TGI) of 47.6%. In the data set with sDMA [2], the “expression of sDMA in vivo” value is reported as “decreased”.
